The values below come from patent US20140113314A1, “Two Pore Channels as a Therapeutic Target to Protect Against Myocardial Ischemia and as an Adjuvant in Cardiac Surgery” (priority 2006, published 2014).

Each structure is given as a SMILES string. “Also recorded” adds a separate entry of the source. Read-outs that look alike come from different tables or passages of the source.

The test system of assay [1] is NaCN induced current from isolated guinea pig ventricular myocytes. The experiment in a line: NaCN induced outward current, whole-cell patch clamp in single ventricular myocytes. The note with it: for peak current densities induced by NaCN in the presence of blocker / ratio of peak current density induced by NaCN in the presence of blocker to that on exposure to NaCN alone: blocker 200 μM; for sensitivity of NaCN induced current in the presence of altered internal pH: quinidine 0.5 mM (pHin 6.0), Zn^2+ 5 mM (pHin 9.0). It counts as cell-based. Background: In patch-clamp work, channel activity is measured electrically.

Assay [2] shares this test system. The note with it: Ba^2+ 5 mM, extracellular, previously demonstrated; cited from earlier work.
Assay [3] relates to temperature jump (TJ) induced current in guinea pig myocytes. As to the kind of experiment: Temperature jump (TJ) induced current in myocytes. It counts as cell-based. From the text: FIG. 15. The characterization of temperature jump (TJ) induced current in guinea pig myocytes. A. Sample trace of TJ induced outward current. Note the current can decay on its own. B. The TJ induced current (upper panel) and its I/V relationships (lower panel). Cells were held at […] and were subject to depolarizing voltage ramps from […] to +50 mV (250 ms duration) with a frequency of 0.1 Hz. Since the current measured at the peak c is out of the current amplitude range of the amplifier, another point near the peak (b) was chosen to construct the I/V curves of the current. C, D, E, and F. Biophysical properties of TREK-1 a heat-activated K2P channel. […] I. Summary of the inhibitory effects of Zn^2+ and quinidine on the TJ induced current (unpaired p<0.01, t-test).

For another assay, the system named is myocytes. The experiment in a line: Myocyte shrinkage associated with the NaCN induced current. The settings on record: quinidine 0.5 mM, Zn2+ 3 mM. The assay is classed as cell-based, guinea pig.
A further assay has as its system IKATP. The experiment in a line: IKATP activated by pinacidil together with low intracellular ATP, patch clamp in myocytes. The assay is classed as cell-based, guinea pig. The settings on record: for effect on IKATP: IKATP activated by pinacidil 100 μM with intracellular ATP 0.1 mM, Zn^2+ 3 mM.

Description for IKATP: All the cells were held at 0 mV.
Single Guinea pig heart cell preparation. Single cardiac myocytes were enzymatically isolated from adult male guinea pig hearts as described in (Gao et al 1992, J Physiol 449:689-704). Guinea pigs, weighing 300 to 500 g, were sacrificed by peritoneal injection with sodium pentobarbital solution (1 ml of 390 mg/ml) in accordance with an approved protocol approved by the IACUC committee at SUNY-Stony Brook. The heart was isolated and placed in Ca^2+ free Tyrode solution and the aorta was cannulated. The heart was then perfused with 50 ml of Ca2+ free Tyrode solution followed by 100 ml of Tyrode solution containing 30 mol/L CaCl2 and 0.4 mg/ml collagenase at 37° C. The heart was then placed in Ca^2+ free Tyrode solution at room temperature for 2 hours. Afterward, a piece of the ventricle was dissected and teased into smaller pieces in Kraft-Brühe (KB) solution (Isenberg et al., 1982 Pflugers Arch 395:6-18) containing (in mM): KCl 83; K2HPO4 30; MgSO4 5; Na-Pyruvic Acid 5; β-OH-Butyric Acid 5; Creatine 5; Taurine 20; Glucose 10; EGTA 0.5; KOH 2; Na2-ATP 5; pH was adjusted to 7.2 by KOH. The dissociated cells were then kept in KB solution at room temperature for at least 1 hour before the experiment. All solutions were bubbled with 100% O2. The isolated cells were stored in KB solution. An Axopatch 1D amplifier (Axon Instruments, Inc) and the patch clamp technique were employed to observe cell membrane current. Patch-pipette resistances were 2 to 3 MΩ before sealing. The pipette solution contained (in mM): K-Aspartic Acid 125; KCl 15; KOH 10; MgCl2 1; HEPES 10; EGTA 11; Mg-ATP 1; pH was adjusted to 7.2 by KOH. The external Tyrode solution contained (in mM): NaCl 137.7; NaOH 2.3; KCl 4; MgCl2 1; HEPES 5; CaCl2 1; CdCl2 1; Glucose 10; pH was adjusted to 7.4 by NaOH. Under these conditions, the L-type Ca^2+ current, the Na^+/Ca^2+ exchange current and the Na^+/K^+ pump current will be absent. […] All experiments were carried out at room temperature (22±1° C.). […] All patch clamp data were digitized by the data acquisition program pClamp8 (Axon Instruments, Inc) for later analysis. Cell capacitance was obtained for each cell and currents were normalized to cell capacitances.

As to `Nc1ccncc1` [4AP, 4-Aminopyridine], in assay [1] (4AP 4 mM, n=6), the “peak current densities of NaCN induced current with blocker” value is listed as 24.1±5.2 pA/pF. Further, the “effect on NaCN induced current” value in assay [1] (agent 4 mM) was “not reduced”.
For `CCCCCC(O)CCCC(=O)O` (centres unmarked) [5-HD, 5-hydroxydecanoic acid], the “effect on NaCN induced current” value in assay [1] (agent 200 μM) is listed as “does not inhibit the NaCN induced current; also recorded: does not result in a reduced current amplitude”. Besides, in assay [1], the “peak current densities induced by NaCN in the presence of blocker” value is 24.7±2.6 pA/pF and the “ratio of peak current density induced by NaCN in the presence of blocker to that on exposure to NaCN alone” value was 1.3±0.1.
`[Ba+2].[Cl-].[Cl-]` [Ba^2+, BaCl2]: the “effect on NaCN induced current” value in assay [2] is reported as “partially blocked”; in assay [1] (Ba^2+ 20 mM), “can prevent the appearance of the NaCN induced current”; in assay [1] (Ba^2+ 20 mM, listed as Ba2+), “abolished”; in assay [1] (Ba^2+ 5-10 mM), “Partial inhibition”; in assay [1] (Ba^2+ 20-40 mM), “almost complete elimination”; in assay [1] (agent 1 mM), “neither Ba^2+ (1 mM, upper panel) nor Cs^+ (3 mM, lower panel) can prevent the appearance of the NaCN induced current”.
Consider `[Cl-].[Cs+]` [Cs^+, CsCl], for which, in assay [1] (Cs^+ 3 mM, n=5), the “peak current densities of NaCN induced current with blocker” value is reported as 19.1±2.4 pA/pF. Besides, the “effect on NaCN induced current” value in assay [1] (agent 3 mM, listed as Cs+) is recorded as “insensitive”; in assay [1] (agent 3 mM, listed as CsCl), “not affected”.
For `COC(=O)[C@@H](N)CCCNC(=N)N[N+](=O)[O-]` [L-NAME], the “effect on NaCN induced current” value in assay [1] (agent 200 μM) is reported as “reduced; also recorded: reduces the current”.
Take `N=C(N)NCCC[C@H](N)C(=O)O` [L-arginine]: in assay [1], the “effect on NaCN induced current” value is “can additionally activate an outward current; also recorded: increases the NaCN induced current”.
For the compound `[Cl-].[Cl-].[Zn+2]` [Zn^2+, ZnCl2], the “effect on TJ induced current” value in assay [3] is on record as “can prevent the appearance of TJ induced current”. In addition, the “effect on NaCN induced current and cell shrinkage” value in the assay on myocytes was “prevent the appearance of the NaCN induced current and cell shrinkage”. In addition, the “effect on IKATP” value in the assay on IKATP is recorded as “cannot be blocked; also recorded: unaffected”. Also, the “effect on NaCN induced current” value was “completely abolish” in assay [1] (Zn^2+ 5 mM); “reversibly abolished; also recorded: can prevent the appearance of the current induced by NaCN” in assay [1] (agent 3 mM); “completely blocked; also recorded: abolished” in assay [1] (agent 3 mM, listed as ZnCl2). Besides, the “sensitivity of NaCN induced current in the presence of altered internal pH” value in assay [1] is on record as “remains sensitive”.
In the case of `COc1ccc(Cl)cc1C(=O)NCCc1ccc(S(=O)(=O)NC(=O)NC2CCCCC2)cc1` [glibenclamide], the “effect on IKATP” value in the assay with IKATP is given as “abolished”. In assay [1] (agent 200 μM), the “effect on NaCN induced current” value was “does not prevent the appearance of the NaCN induced current; also recorded: could not be abolished”. For the same compound, in assay [1], the “peak current densities induced by NaCN in the presence of blocker” value is 23.0±2.1 pA/pF and the “ratio of peak current density induced by NaCN in the presence of blocker to that on exposure to NaCN alone” value stood at 1.2±0.1.
As for `CCCCC/C=C\C/C=C\C/C=C\C/C=C\CCCC(=O)N[C@H](C)CO` [methanandamide], the “effect on NaCN induced current” value in assay [1] (methanandamide 20 μM) is on record as “does not block the current induced by NaCN”; in assay [1] (methanandamide 20 μM to 100 μM), “does not prevent the appearance of the NaCN induced current”; in assay [1] (methanandamide 40 and 100 μM), “significant increase”; in assay [1] (methanandamide 40 and 100 μM, listed as Methanandamide), “significantly increased”.
Take `CC(N/C(=N\C#N)Nc1ccncc1)C(C)(C)C` (centres unmarked) [pinacidil]: the “activation of IKATP” value in the assay with IKATP (pinacidil 100 μM together with low intracellular ATP 0.1 mM) is on record as “activated”.
Consider `C=C[C@H]1C[N@@]2CC[C@H]1C[C@@H]2[C@@H](O)c1ccnc2ccc(OC)cc12` [quinidine], for which the “effect on TJ induced current” value in assay [3] was “partially blocked”. For the same compound, the “effect on NaCN induced current and cell shrinkage” value with myocytes is “prevent the appearance of the NaCN induced current and cell shrinkage”. Moreover, the “effect on IKATP” value in the assay with IKATP is reported as “unaffected”. Besides, the “effect on NaCN induced current” value in assay [1] (agent 1 mM) was “can prevent the appearance of the current induced by NaCN”; in assay [1] (quinidine 0.5 mM), “completely abolished; also recorded: can both block the peak current induced by NaCN and prevent its occurrence”. For the same compound, in assay [1], the “sensitivity of NaCN induced current in the presence of altered internal pH” value was “remains sensitive”.
